We go through five compounds from publication PMC8722715 (Frontiers in Cell and Developmental Biology, 2021).

The structures appear in SMILES notation. pIC50: −log10 of the molar value.

Usually pIC50 stands for the negative decadic logarithm of the IC50, by convention in mol/L.

In one experiment the target is T1, hNaV1.6 channel (Homo sapiens, UniProt Q9UQD0).
T1 construct: expressed in transfected cells
Put plainly: Automated patch-clamp block of hNaV1.6 peak Na+ current in HEK-293 cells. It is filed as cell-based. The following applies: for pIC50: HEK-293 cells stably expressing hNaV1.6, SyncroPatch 384 PE whole-cell, holding -100 mV, 0 mV test pulse 50 ms every 5 s, room temperature 18-22°C, 0.3% BSA, steady state or end of 15-min application, mean, S.E.M. and n cells; for hNaV1.6 IC50 versus WT: ratio of analogue mean IC50 to HwTx-IV WT mean IC50 on hNaV1.6. The procedure: (§1) CHO cells stably expressing the hNaV1.7 channel subtype were cultured in Dulbecco’s Modified Eagle’s Medium F-12 (DMEM/F12) supplemented with 10% fetal bovine serum, 2 mM glutamine, 200 μg/ml hygromycine B, 10 U/ml penicillin and 10 μg/ml streptomycin (Gibco, Grand Island, NY). HEK-293 cells stably expressing the hNaV1.6 channel subtype were cultured in Dulbecco’s Modified Eagle’s Medium (DMEM) supplemented with 10% fetal calf serum, 1 mM pyruvic acid, 4.5 g/L glucose, 2 mM glutamine, 800 μg/ml G418, 10 U/ml penicillin and 10 μg/ml streptomycin (Gibco, Grand Island, NY). All cell lines were incubated at 37°C in a 5% CO2 atmosphere. For electrophysiological recordings, cells were detached with trypsin, and floating single cells were diluted (∼300,000 cells/ml) in an extracellular solution containing (in mM): 140 NaCl, 4 KCl, 2 CaCl2, 1 MgCl2, 5 glucose and 10 HEPES (pH 7.4, osmolarity 298 mOsm), that was used throughout the experiments.
(§2) HwTx-IV analogues were investigated on CHO cells expressing hNav1.7 channel and HEK-293 cells expressing hNaV1.6 channel using the automated patch-clamp system from Nanion (SyncroPatch 384 PE; München, Germany). Chips with single-hole and high-resistance (∼6–7 MΩ) were used for both cell lines. Voltage pulses and whole-cell recordings were achieved using the PatchControl384 v1.5.2 software (Nanion) and the Biomek v1.0 interface (Beckman Coulter). Prior to recordings, dissociated cells were shaken at 200 RPM in a cell hotel reservoir at 10°C. After cell catching, sealing, whole-cell formation, liquid application, recording, and data acquisition were all performed sequentially and automatically. The intracellular solution contained (in mM): 110 CsF, 10 CsCl, 10 NaCl, 1 MgCl2, 1 CaCl2, 10 EGTA and 10 HEPES (pH 7.2, osmolarity 280 mOsm), and the extracellular solution was as described above. Whole-cell experiments were done at −100 mV holding potential and at room temperature (18–22°C), while currents triggered at either −10 or 0 mV test potential were sampled at 20 kHz. Stimulation frequency was set at 0.2 Hz. Each HwTx-IV analogue was prepared at various concentrations in the extracellular solution, itself supplemented with 0.3% of bovine serum albumin (BSA), also added in the control solution. The peptides were distributed in 384-well microplates according to the number of compounds to be tested (generally four), the concentration range defined from the IC50 of wild-type HwTx-IV, and the number of cells desired for each experimental condition. Compound solutions were diluted 3 times in the patch-clamp recording well by adding 30–60 μl external solution, to reach the final reported concentration and the test volume of 90 μl. For establishing dose-response curves, the compounds were tested at a test potential of either −10 or 0 mV for 50 ms with a pulse every 5 s. Percentages of current inhibition were measured at steady-state of blockage or at the end of a 15-min application time.
For orientation: Patch clamp records ionic current or voltage across a cell membrane.

Another experiment concerns the target T2, hNaV1.7 channel (Homo sapiens, UniProt Q15858).
T2 construct: expressed in transfected cells
Nature of the experiment: Automated patch-clamp block of hNaV1.7 peak Na+ current in CHO cells. The following applies: for pIC50: CHO cells stably expressing hNaV1.7, SyncroPatch 384 PE whole-cell, holding -100 mV, -10 mV test pulse 50 ms every 5 s, room temperature 18-22°C, 0.3% BSA, steady state or end of 15-min application, mean, S.E.M. and n cells; for hNaV1.7/hNaV1.6 selectivity ratio: inverse ratio of the mean IC50 values on hNaV1.7 (CHO) and hNaV1.6 (HEK-293) of Table 1; for hNaV1.7 IC50 versus WT: ratio of analogue mean IC50 to HwTx-IV WT mean IC50 on hNaV1.7. The experiment is classed as cell-based. The procedure:
as §1
as §2, with “The peptides were distributed in 384-well microplates according to the number of compounds to be tested (generally four), the concentration range defined from the IC50 of wild-type HwTx-IV, and the number of cells desired for each experimental condition.” left out

T1 sequence (Q9UQD0 whole entry): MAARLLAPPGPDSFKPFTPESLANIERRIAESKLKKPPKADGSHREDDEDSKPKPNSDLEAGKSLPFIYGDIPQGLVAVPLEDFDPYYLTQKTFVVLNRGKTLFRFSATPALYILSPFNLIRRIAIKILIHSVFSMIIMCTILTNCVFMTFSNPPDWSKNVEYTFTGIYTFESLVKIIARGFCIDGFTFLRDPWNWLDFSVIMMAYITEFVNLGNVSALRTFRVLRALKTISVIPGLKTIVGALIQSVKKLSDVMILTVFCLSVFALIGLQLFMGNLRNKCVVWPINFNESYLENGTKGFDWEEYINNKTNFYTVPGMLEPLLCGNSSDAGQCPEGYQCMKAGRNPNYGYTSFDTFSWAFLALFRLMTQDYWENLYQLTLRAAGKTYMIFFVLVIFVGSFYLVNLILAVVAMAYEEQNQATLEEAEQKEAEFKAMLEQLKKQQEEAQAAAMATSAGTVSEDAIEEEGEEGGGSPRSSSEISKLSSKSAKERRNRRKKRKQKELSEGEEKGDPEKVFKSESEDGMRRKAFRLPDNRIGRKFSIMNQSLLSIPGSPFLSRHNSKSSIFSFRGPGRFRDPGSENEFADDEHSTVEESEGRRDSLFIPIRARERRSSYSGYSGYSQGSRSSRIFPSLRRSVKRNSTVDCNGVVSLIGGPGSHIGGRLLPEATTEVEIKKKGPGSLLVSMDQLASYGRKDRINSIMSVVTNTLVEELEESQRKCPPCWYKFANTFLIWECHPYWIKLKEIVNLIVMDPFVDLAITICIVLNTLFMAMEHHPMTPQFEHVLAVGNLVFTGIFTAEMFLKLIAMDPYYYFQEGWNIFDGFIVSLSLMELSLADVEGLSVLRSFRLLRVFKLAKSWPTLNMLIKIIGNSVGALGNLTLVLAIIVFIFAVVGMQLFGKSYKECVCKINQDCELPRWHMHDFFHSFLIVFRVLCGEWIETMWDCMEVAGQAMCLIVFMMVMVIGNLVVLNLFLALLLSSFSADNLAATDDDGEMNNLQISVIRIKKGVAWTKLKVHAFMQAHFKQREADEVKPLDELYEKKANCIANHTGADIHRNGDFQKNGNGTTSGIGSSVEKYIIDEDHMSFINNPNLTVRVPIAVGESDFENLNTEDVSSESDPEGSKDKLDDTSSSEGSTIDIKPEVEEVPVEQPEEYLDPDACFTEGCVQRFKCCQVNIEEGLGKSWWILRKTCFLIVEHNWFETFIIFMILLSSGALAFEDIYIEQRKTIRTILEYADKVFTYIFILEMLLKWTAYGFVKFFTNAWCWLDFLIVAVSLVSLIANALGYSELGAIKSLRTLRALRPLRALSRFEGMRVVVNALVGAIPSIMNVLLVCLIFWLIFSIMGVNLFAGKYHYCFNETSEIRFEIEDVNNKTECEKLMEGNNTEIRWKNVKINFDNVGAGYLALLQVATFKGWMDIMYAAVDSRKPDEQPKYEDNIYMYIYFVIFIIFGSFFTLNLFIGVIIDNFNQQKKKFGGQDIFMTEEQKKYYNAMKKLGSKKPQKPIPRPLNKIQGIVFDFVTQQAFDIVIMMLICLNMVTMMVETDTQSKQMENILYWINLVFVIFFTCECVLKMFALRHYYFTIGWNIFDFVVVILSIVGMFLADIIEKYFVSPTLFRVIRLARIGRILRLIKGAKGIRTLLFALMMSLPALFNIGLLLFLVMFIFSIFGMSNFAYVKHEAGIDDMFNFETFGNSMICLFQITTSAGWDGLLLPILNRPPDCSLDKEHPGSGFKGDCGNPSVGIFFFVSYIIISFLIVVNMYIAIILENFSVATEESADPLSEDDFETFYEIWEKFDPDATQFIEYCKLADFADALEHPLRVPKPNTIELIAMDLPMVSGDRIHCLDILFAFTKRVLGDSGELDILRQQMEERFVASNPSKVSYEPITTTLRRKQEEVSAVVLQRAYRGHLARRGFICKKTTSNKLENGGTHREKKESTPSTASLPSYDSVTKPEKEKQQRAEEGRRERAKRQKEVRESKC
T2 sequence (Q15858 whole entry): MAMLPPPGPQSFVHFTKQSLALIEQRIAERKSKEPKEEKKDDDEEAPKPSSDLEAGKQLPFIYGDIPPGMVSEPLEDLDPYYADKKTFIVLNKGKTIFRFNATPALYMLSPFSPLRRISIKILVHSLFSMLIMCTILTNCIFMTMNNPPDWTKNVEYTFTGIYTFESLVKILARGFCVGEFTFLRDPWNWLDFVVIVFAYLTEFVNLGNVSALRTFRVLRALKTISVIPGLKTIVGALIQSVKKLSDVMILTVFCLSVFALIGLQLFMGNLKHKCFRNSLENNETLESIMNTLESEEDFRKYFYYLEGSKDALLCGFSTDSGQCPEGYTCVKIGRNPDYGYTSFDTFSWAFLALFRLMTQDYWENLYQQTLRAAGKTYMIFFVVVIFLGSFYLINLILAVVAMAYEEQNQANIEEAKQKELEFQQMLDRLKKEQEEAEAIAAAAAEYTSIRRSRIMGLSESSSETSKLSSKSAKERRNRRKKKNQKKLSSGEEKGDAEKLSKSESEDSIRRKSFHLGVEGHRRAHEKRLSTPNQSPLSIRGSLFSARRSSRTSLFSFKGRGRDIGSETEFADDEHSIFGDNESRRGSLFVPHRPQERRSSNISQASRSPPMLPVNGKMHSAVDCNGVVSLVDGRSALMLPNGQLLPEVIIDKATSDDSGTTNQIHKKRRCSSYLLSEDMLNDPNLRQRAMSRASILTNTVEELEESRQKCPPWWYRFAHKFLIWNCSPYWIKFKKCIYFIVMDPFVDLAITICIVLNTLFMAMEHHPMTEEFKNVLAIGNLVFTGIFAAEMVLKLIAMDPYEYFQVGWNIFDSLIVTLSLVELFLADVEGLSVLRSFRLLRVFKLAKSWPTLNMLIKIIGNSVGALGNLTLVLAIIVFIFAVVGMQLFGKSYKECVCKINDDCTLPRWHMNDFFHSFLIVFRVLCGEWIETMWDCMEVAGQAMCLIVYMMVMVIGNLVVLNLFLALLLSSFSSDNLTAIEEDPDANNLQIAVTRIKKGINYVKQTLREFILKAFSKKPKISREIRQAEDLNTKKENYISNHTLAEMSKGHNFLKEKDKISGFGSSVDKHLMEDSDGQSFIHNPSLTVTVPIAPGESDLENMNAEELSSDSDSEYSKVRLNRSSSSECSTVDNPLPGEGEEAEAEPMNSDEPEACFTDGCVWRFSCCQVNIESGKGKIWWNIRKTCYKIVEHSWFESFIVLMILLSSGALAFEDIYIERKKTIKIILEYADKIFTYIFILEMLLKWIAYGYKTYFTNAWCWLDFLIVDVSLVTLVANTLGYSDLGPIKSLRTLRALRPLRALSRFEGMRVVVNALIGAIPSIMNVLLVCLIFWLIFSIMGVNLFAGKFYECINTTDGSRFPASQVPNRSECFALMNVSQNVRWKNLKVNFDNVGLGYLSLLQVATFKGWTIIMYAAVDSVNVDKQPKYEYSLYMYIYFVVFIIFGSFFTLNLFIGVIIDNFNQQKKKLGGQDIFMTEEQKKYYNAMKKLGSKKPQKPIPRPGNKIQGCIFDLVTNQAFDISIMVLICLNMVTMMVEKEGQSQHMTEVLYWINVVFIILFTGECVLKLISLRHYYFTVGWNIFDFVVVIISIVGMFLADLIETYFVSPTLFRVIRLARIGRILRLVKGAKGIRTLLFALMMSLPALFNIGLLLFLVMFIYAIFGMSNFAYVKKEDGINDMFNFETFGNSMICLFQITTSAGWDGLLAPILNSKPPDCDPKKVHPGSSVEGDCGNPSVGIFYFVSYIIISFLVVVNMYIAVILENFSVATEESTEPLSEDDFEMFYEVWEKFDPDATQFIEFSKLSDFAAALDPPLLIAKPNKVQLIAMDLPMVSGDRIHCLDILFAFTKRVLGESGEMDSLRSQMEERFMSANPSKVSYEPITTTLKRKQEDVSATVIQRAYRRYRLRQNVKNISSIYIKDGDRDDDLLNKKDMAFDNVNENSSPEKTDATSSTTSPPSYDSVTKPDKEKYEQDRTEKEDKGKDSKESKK

As to `CC[C@H](C)[C@H](NC(=O)[C@H](CCC(N)=O)NC(=O)[C@H](Cc1c[nH]c2ccccc12)NC(=O)[C@H](CCCCN)NC(=O)[C@@H]1CSSC[C@@H]2NC(=O)[C@H](CCC(N)=O)NC(=O)[C@H](CC(=O)O)NC(=O)[C@H](CC(N)=O)NC(=O)[C@H](CO)NC(=O)[C@@H]3CCCN3C(=O)[C@H](CC(N)=O)NC(=O)[C@@H]3CSSC[C@H](NC(=O)[C@H](C(C)C)NC(=O)[C@H](CC(C)C)NC(=O)[C@H](CCCCN)NC(=O)[C@H](CO)NC(=O)[C@H](CO)NC(=O)[C@H](CCCCN)NC(=O)[C@H](CSSC[C@H](NC(=O)[C@@H](N)CCC(=O)O)C(=O)N[C@@H](CC(C)C)C(=O)N[C@@H](CCCCN)C(=O)N[C@@H]([C@@H](C)CC)C(=O)N[C@@H](Cc4ccccc4)C(=O)N[C@@H](CCCCN)C(=O)N[C@@H](C)C(=O)N3)NC2=O)C(=O)N[C@@H](CO)C(=O)N[C@@H](C)C(=O)N[C@@H](CCCCN)C(=O)N[C@@H]([C@@H](C)O)C(=O)N[C@@H](CCCNC(=N)N)C(=O)N[C@@H](Cc2c[nH]c3ccccc23)C(=O)N1)C(N)=O` [HwTx-IV E^4K/R ^26A/Y^33W], on hNaV1.6 channel, the pIC50 was 7.06 and the “hNaV1.6 IC50 versus WT” value is recorded as 0.38. In addition, at hNaV1.7 channel, the pIC50 was 9.05, the hNaV1.7/hNaV1.6 selectivity ratio entry is “above 46” and the “hNaV1.7 IC50 versus WT” value came out at 0.09.

Consider `CC[C@H](C)[C@H](NC(=O)[C@H](CCC(N)=O)NC(=O)[C@H](Cc1ccc(O)cc1)NC(=O)[C@H](CCCCN)NC(=O)[C@@H]1CSSC[C@@H]2NC(=O)[C@H](CCC(N)=O)NC(=O)[C@H](CC(=O)O)NC(=O)[C@H](CC(N)=O)NC(=O)[C@H](CO)NC(=O)[C@@H]3CCCN3C(=O)[C@H](CC(N)=O)NC(=O)[C@@H]3CSSC[C@H](NC(=O)[C@H](C(C)C)NC(=O)[C@H](CC(C)C)NC(=O)[C@H](CCCCN)NC(=O)[C@H](CO)NC(=O)[C@H](CO)NC(=O)[C@H](CCCCN)NC(=O)[C@H](CSSC[C@H](NC(=O)[C@@H](N)CCC(=O)O)C(=O)N[C@@H](CC(C)C)C(=O)N[C@@H](CCCCN)C(=O)N[C@@H]([C@@H](C)CC)C(=O)N[C@@H](Cc4ccccc4)C(=O)N[C@@H](CCCCN)C(=O)N[C@@H](C)C(=O)N3)NC2=O)C(=O)N[C@@H](CO)C(=O)N[C@@H](CCC(N)=O)C(=O)N[C@@H](CCCCN)C(=O)N[C@@H]([C@@H](C)O)C(=O)N[C@@H](CCCNC(=N)N)C(=O)N[C@@H](Cc2c[nH]c3ccccc23)C(=O)N1)C(N)=O` [HwTx-IV E^4K/R ^26Q], for which, at hNaV1.6 channel, the pIC50 is 8.47 and the “hNaV1.6 IC50 versus WT” value is on record as 0.02. In addition, on hNaV1.7 channel, the pIC50 was 8.44, the hNaV1.7/hNaV1.6 selectivity ratio entry is on record as “less than 2” and the “hNaV1.7 IC50 versus WT” value worked out at 0.36.

On to `CC[C@H](C)[C@H](NC(=O)[C@H](CCC(N)=O)NC(=O)[C@H](Cc1ccc(O)cc1)NC(=O)[C@H](CC(N)=O)NC(=O)[C@@H]1CSSC[C@@H]2NC(=O)[C@H](CCC(N)=O)NC(=O)[C@H](CC(=O)O)NC(=O)[C@H](CC(N)=O)NC(=O)[C@H](CO)NC(=O)[C@@H]3CCCN3C(=O)[C@H](CC(N)=O)NC(=O)[C@@H]3CSSC[C@H](NC(=O)[C@H](C(C)C)NC(=O)[C@H](CC(C)C)NC(=O)[C@H](CCCCN)NC(=O)[C@H](CO)NC(=O)[C@H](CO)NC(=O)[C@H](CCCCN)NC(=O)[C@H](CSSC[C@H](NC(=O)[C@@H](N)CCC(=O)O)C(=O)N[C@@H](CC(C)C)C(=O)N[C@@H](CCCNC(=N)N)C(=O)N[C@@H]([C@@H](C)CC)C(=O)N[C@@H](Cc4ccccc4)C(=O)N[C@@H](CCCCN)C(=O)N[C@@H](C)C(=O)N3)NC2=O)C(=O)N[C@@H](CO)C(=O)N[C@@H](CCCNC(=N)N)C(=O)N[C@@H](CCCCN)C(=O)N[C@@H]([C@@H](C)O)C(=O)N[C@@H](CCCNC(=N)N)C(=O)N[C@@H](Cc2c[nH]c3ccccc23)C(=O)N1)C(N)=O` [HwTx-IV E^4R/K^32N], for which, at hNaV1.6 channel, the pIC50 is less than 6.48 and the “hNaV1.6 IC50 versus WT” value is more than 1.5. Further, on hNaV1.7 channel, the pIC50 is less than 6.00 and the “hNaV1.7 IC50 versus WT” value is recorded as more than 101.

Take `CC[C@H](C)[C@H](NC(=O)[C@H](CCC(N)=O)NC(=O)[C@H](Cc1ccc(O)cc1)NC(=O)[C@H](CCCCN)NC(=O)[C@@H]1CSSC[C@@H]2NC(=O)[C@H](CCC(N)=O)NC(=O)[C@H](CC(=O)O)NC(=O)[C@H](CC(N)=O)NC(=O)[C@H](CO)NC(=O)[C@@H]3CCCN3C(=O)[C@H](CC(N)=O)NC(=O)[C@@H]3CSSC[C@H](NC(=O)[C@H](C(C)C)NC(=O)[C@H](CC(C)C)NC(=O)[C@H](CCCCN)NC(=O)[C@H](CO)NC(=O)[C@H](CO)NC(=O)[C@H](C)NC(=O)[C@H](CSSC[C@H](NC(=O)[C@@H](N)CCC(=O)O)C(=O)N[C@@H](CC(C)C)C(=O)N[C@@H](CCC(=O)O)C(=O)N[C@@H]([C@@H](C)CC)C(=O)N[C@@H](Cc4ccccc4)C(=O)N[C@@H](CCCCN)C(=O)N[C@@H](C)C(=O)N3)NC2=O)C(=O)N[C@@H](CO)C(=O)N[C@@H](CCCNC(=N)N)C(=O)N[C@@H](CCCCN)C(=O)N[C@@H]([C@@H](C)O)C(=O)N[C@@H](CCCNC(=N)N)C(=O)N[C@@H](Cc2c[nH]c3ccccc23)C(=O)N1)C(N)=O` [HwTx-IV K^18A]: at hNaV1.6 channel, the pIC50 is 6.38 and the “hNaV1.6 IC50 versus WT” value amounted to 1.84. Moreover, at hNaV1.7 channel, the pIC50 was 8.19, the hNaV1.7/hNaV1.6 selectivity ratio entry is listed as “above 46” and the “hNaV1.7 IC50 versus WT” value stood at 0.65.

For the compound `CC[C@H](C)[C@H](NC(=O)[C@H](CCC(N)=O)NC(=O)[C@H](Cc1ccc(O)cc1)NC(=O)[C@H](CC(N)=O)NC(=O)[C@@H]1CSSC[C@@H]2NC(=O)[C@H](CCC(N)=O)NC(=O)[C@H](CC(=O)O)NC(=O)[C@H](CC(N)=O)NC(=O)[C@H](CO)NC(=O)[C@@H]3CCCN3C(=O)[C@H](CC(N)=O)NC(=O)[C@@H]3CSSC[C@H](NC(=O)[C@H](C(C)C)NC(=O)[C@H](CC(C)C)NC(=O)[C@H](CCCCN)NC(=O)[C@H](CO)NC(=O)[C@H](CO)NC(=O)[C@H](CCCCN)NC(=O)[C@H](CSSC[C@H](NC(=O)[C@@H](N)CCC(=O)O)C(=O)N[C@@H](CC(C)C)C(=O)N[C@@H](CCC(=O)O)C(=O)N[C@@H]([C@@H](C)CC)C(=O)N[C@@H](Cc4ccccc4)C(=O)N[C@@H](CCCCN)C(=O)N[C@@H](C)C(=O)N3)NC2=O)C(=O)N[C@@H](CO)C(=O)N[C@@H](CCCNC(=N)N)C(=O)N[C@@H](CCCCN)C(=O)N[C@@H]([C@@H](C)O)C(=O)N[C@@H](CCCNC(=N)N)C(=O)N[C@@H](Cc2c[nH]c3ccccc23)C(=O)N1)C(N)=O` [HwTx-IV K^32N], at hNaV1.6 channel, the pIC50 is less than 6.00 and the “hNaV1.6 IC50 versus WT” value is more than 4.4. Also, on hNaV1.7 channel, the pIC50 is 5.24 and the “hNaV1.7 IC50 versus WT” value is 581.
